Measured values reported in patent publication US8802597B2, “Herbicidal pyrimidines” (E I du Pont de Nemours and Company, priority 2003, dated 2014).

Tests used:
Assay in all cases: Test C pre/postemergence
Format in all cases: in vivo
[1] = test system: johnsongrass (Sorghum halepense); conditions: for Plant response rating, Johnsongrass: Preemergence
Outline: (§1)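 Pre: seeds planted, sprayed same day. Post: 1- to 4-leaf plants (2–18 cm). Formulation: non-phytotoxic solvent + surfactant. Greenhouse 12–14 d; visual % control vs untreated, 0–100.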

[2] = test system: pigweed (Amaranthus retroflexus); conditions: for Plant response rating, Pigweed: Preemergence, scale 0 to 100, 0 no effect, 100 complete control
Outline: as §1

[3] = test system: velvetleaf (Abutilon theophrasti); conditions: for Plant response rating, Velvetleaf: Preemergence, scale 0 to 100, 0 no effect, 100 complete control
Outline: as §1

[4] = test system: common ragweed (Ambrosia elatior); conditions: for Plant response rating, Ragweed: Preemergence, scale 0 to 100, 0 no effect, 100 complete control
Outline: as §1

[5] = test system: goosegrass (Eleusine indica); conditions: for Plant response rating, Goosegrass: Preemergence
Outline: as §1

[6] = test system: lambsquarters (Chenopodium album); conditions: for Plant response rating, Lambsquarters: Preemergence
Outline: as §1

[7] = test system: cocklebur (Xanthium strumarium); conditions: for Plant response rating, Cocklebur: Preemergence
Outline: as §1

soybean (Glycine max) = conditions: for Plant response rating, Soybean: Preemergence, scale 0 to 100, 0 no effect, 100 complete control
Outline: as §1

kochia (Kochia scoparia) = conditions: for Plant response rating, Kochia: Preemergence
Outline: as §1

[8] = test system: bermudagrass (Cynodon dactylon); conditions: for Plant response rating (scale of 0 to 100), Bermudagrass / Bermudagrass plant response rating: Postemergence; for Bermudagrass plant response rating: scale 0 to 100 (0 no effect, 100 complete control); for Plant response rating, Bermudagrass: Preemergence
Outline: as §1

[9] = test system: eastern black nightshade (Solanum ptycanthum); conditions: Preemergence, scale 0 to 100, 0 no effect, 100 complete control
Outline: as §1

[10] = test system: common (oilseed) sunflower (Helianthus annuus); conditions: Preemergence, scale 0 to 100, 0 no effect, 100 complete control
Outline: as §1

[11] = Postemergence, 125 g ai/ha, scale 0 to 100 (0 no effect, 100 complete control)
[12] = 16 g ai/ha, scale 0 to 100, 0 no effect, 100 complete control
[13] = 31 g ai/ha, scale 0 to 100, 0 no effect, 100 complete control
[14] = 62 g ai/ha, scale 0 to 100, 0 no effect, 100 complete control

Structure (SMILES): Nc1nc(-c2ccc(Cl)cc2)nc(C(=O)[O-])c1Cl.[Na+] [Compound 117]
- Plant response rating (scale of 0 to 100), Johnsongrass ([1]; Postemergence, 16 g ai/ha): 10
- Plant response rating (scale of 0 to 100), Johnsongrass ([1]; Postemergence, 31 g ai/ha): 50
- Plant response rating (scale of 0 to 100), Johnsongrass ([1]; Postemergence, 62 g ai/ha): 50
- Johnsongrass plant response rating [1, 11]: 50
- Plant response rating, Johnsongrass [1, 12]: 0
- Plant response rating, Johnsongrass [1, 13]: 35
- Plant response rating, Johnsongrass [1, 14]: 60
- Plant response rating, Johnsongrass ([1]; 125 g ai/ha, scale 0 to 100): 70
- Plant response rating (scale of 0 to 100), Pigweed ([2]; Postemergence, 16 g ai/ha): 90
- Plant response rating (scale of 0 to 100), Pigweed ([2]; Postemergence, 31 g ai/ha): 95
- Plant response rating (scale of 0 to 100), Pigweed ([2]; Postemergence, 62 g ai/ha): 95
- Pigweed plant response rating [2, 11]: 95
- Plant response rating, Pigweed ([2]; 16 g ai/ha): 50
- Plant response rating, Pigweed ([2]; 31 g ai/ha): 80
- Plant response rating, Pigweed ([2]; 62 g ai/ha): 90
- Plant response rating (scale of 0 to 100), Velvetleaf ([3]; Postemergence, 16 g ai/ha): 60
- Plant response rating (scale of 0 to 100), Velvetleaf ([3]; Postemergence, 31 g ai/ha): 70
- Plant response rating (scale of 0 to 100), Velvetleaf ([3]; Postemergence, 62 g ai/ha): 95
- Velvetleaf plant response rating [3, 11]: 95
- Plant response rating, Velvetleaf ([3]; 16 g ai/ha): 0
- Plant response rating, Velvetleaf ([3]; 31 g ai/ha): 50
- Plant response rating, Velvetleaf ([3]; 62 g ai/ha): 65
- Plant response rating (scale of 0 to 100), Ragweed ([4]; Postemergence, 16 g ai/ha): 95
- Plant response rating (scale of 0 to 100), Ragweed ([4]; Postemergence, 31 g ai/ha): 95
- Plant response rating (scale of 0 to 100), Ragweed ([4]; Postemergence, 62 g ai/ha): 100
- Ragweed plant response rating [4, 11]: 100
- Plant response rating, Ragweed ([4]; 16 g ai/ha): 60
- Plant response rating, Ragweed ([4]; 31 g ai/ha): 60
- Plant response rating, Ragweed ([4]; 62 g ai/ha): 90
- Plant response rating (scale of 0 to 100), Goosegrass ([5]; Postemergence, 16 g ai/ha): 40
- Plant response rating (scale of 0 to 100), Goosegrass ([5]; Postemergence, 31 g ai/ha): 40
- Plant response rating (scale of 0 to 100), Goosegrass ([5]; Postemergence, 62 g ai/ha): 75
- Goosegrass plant response rating [5, 11]: 80
- Plant response rating, Goosegrass [5, 12]: 0
- Plant response rating, Goosegrass [5, 13]: 0
- Plant response rating, Goosegrass [5, 14]: 0
- Plant response rating, Goosegrass ([5]; 125 g ai/ha, scale 0 to 100): 30
- Plant response rating (scale of 0 to 100), Lambsquarters ([6]; Postemergence, 16 g ai/ha): 95
- Plant response rating (scale of 0 to 100), Lambsquarters ([6]; Postemergence, 31 g ai/ha): 95
- Plant response rating (scale of 0 to 100), Lambsquarters ([6]; Postemergence, 62 g ai/ha): 95
- Lambsquarters plant response rating [6, 11]: 95
- Plant response rating, Lambsquarters [6, 12]: 20
- Plant response rating, Lambsquarters [6, 13]: 100
- Plant response rating, Lambsquarters [6, 14]: 100
- Plant response rating, Lambsquarters ([6]; 125 g ai/ha, scale 0 to 100): 100
- Plant response rating (scale of 0 to 100), Cocklebur ([7]; Postemergence, 16 g ai/ha): 90
- Plant response rating (scale of 0 to 100), Cocklebur ([7]; Postemergence, 62 g ai/ha): 90
- Cocklebur plant response rating [7, 11]: 90
- Plant response rating, Cocklebur [7, 12]: 0
- Plant response rating, Cocklebur [7, 13]: 0
- Plant response rating, Cocklebur [7, 14]: 5
- Plant response rating, Cocklebur ([7]; 125 g ai/ha, scale 0 to 100): 90
- Plant response rating (scale of 0 to 100), Soybean (soybean (Glycine max); Postemergence, 16 g ai/ha): 100
- Plant response rating (scale of 0 to 100), Soybean (soybean (Glycine max); Postemergence, 31 g ai/ha): 100
- Plant response rating (scale of 0 to 100), Soybean (soybean (Glycine max); Postemergence, 62 g ai/ha): 100
- Soybean plant response rating (soybean (Glycine max); [11]): 100
- Plant response rating, Soybean (soybean (Glycine max); 16 g ai/ha): 85
- Plant response rating, Soybean (soybean (Glycine max); 31 g ai/ha): 100
- Plant response rating, Soybean (soybean (Glycine max); 62 g ai/ha): 100
- Plant response rating (scale of 0 to 100), Kochia (kochia (Kochia scoparia); Postemergence, 16 g ai/ha): 90
- Plant response rating (scale of 0 to 100), Kochia (kochia (Kochia scoparia); Postemergence, 31 g ai/ha): 90
- Plant response rating (scale of 0 to 100), Kochia (kochia (Kochia scoparia); Postemergence, 62 g ai/ha): 90
- Kochia plant response rating (kochia (Kochia scoparia); [11]): 90
- Plant response rating, Kochia (kochia (Kochia scoparia); [12]): 0
- Plant response rating, Kochia (kochia (Kochia scoparia); [13]): 5
- Plant response rating, Kochia (kochia (Kochia scoparia); [14]): 20
- Plant response rating, Kochia (kochia (Kochia scoparia); 125 g ai/ha, scale 0 to 100): 60
- Plant response rating (scale of 0 to 100), Bermudagrass ([8]; 16 g ai/ha): 60
- Plant response rating (scale of 0 to 100), Bermudagrass ([8]; 31 g ai/ha): 65
- Bermudagrass plant response rating ([8]; 62 g ai/ha): 85
- Bermudagrass plant response rating ([8]; 125 g ai/ha): 90
- Plant response rating, Bermudagrass [8, 12]: 0
- Plant response rating, Bermudagrass [8, 13]: 0
- Plant response rating, Bermudagrass [8, 14]: 30
- Plant response rating, Bermudagrass ([8]; 125 g ai/ha, scale 0 to 100): 65
- Plant response rating, Nightshade ([9]; 16 g ai/ha): 0
- Plant response rating, Nightshade ([9]; 31 g ai/ha): 5
- Plant response rating, Nightshade ([9]; 62 g ai/ha): 40
- Plant response rating, Sunflower ([10]; 16 g ai/ha): 0
- Plant response rating, Sunflower ([10]; 31 g ai/ha): 50
- Plant response rating, Sunflower ([10]; 62 g ai/ha): 90
